# Laboratory results as given in patent US12668589B2, “N-formamidopyrazoline derivative as P2X3 receptor antagonist and use thereof” (HANGZHOU WESTAN PHARMACEUTICAL TECHNOLOGY CO., LTD, priority 2020, dated 2026).
# Biological target: T1, human P2X3 (Homo sapiens, UniProt P56373)
# T1 sequence (P56373 1-397): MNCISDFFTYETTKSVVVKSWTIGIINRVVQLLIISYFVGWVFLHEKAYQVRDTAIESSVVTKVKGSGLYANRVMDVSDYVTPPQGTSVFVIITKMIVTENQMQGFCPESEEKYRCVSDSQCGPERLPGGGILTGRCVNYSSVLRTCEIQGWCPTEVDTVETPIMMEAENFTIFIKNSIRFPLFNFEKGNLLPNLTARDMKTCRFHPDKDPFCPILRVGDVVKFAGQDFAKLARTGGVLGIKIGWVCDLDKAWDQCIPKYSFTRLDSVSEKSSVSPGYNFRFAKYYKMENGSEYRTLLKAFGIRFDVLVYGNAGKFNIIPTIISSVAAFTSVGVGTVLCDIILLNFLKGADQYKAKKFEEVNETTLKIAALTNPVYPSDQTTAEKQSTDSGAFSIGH
# Assay: cell-based
# Settings: not given
row,Compound,IC50
1,"C[C@@H](NC(=O)N1C[C@H](N2CCOCC2=O)C(c2ccc(F)cc2)=N1)c1ccc(C(F)(F)F)nc1 [Compound 24, (S)-4-(3-oxomorpholin-4-y])-3-(4-fluorophenyl)-N-((R)-1-(2-(6-(trifluoromethyl)pyridin-3-yl)ethyl)-4,5-dihydro-1H-pyrazol-1-carboxamide]",212 nM
2,"COC(=O)N(C)[C@H]1CN(C(=O)N[C@H](C)c2ccc(C(F)(F)F)nc2)N=C1c1ccc(OC)cc1 [Compound 16, (S)-4-(N-methyl-N-methoxycarbonylamino)-3-(4-methoxyphenyl)-N-((R)-1-(6-(trifluoromethyl)pyridin-3-yl)ethyl)-4,5-dihydro-1H-pyrazol-1-carboxamide]",132 nM
3,"Cc1ccc(C2=NN(C(=O)N[C@H](C)c3ccc(Cl)cc3)C[C@@H]2N2CCN(C)CC2=O)cc1 [Compound 2, (S)-4-(4-methyl-2-oxopiperazin-1-yl)-3-(4-methylphenyl)-N-((R)-1-(4-chlorophenyl)ethyl)-4,5-dihydro-1H-pyrazol-1-carboxamide]",7540 nM
4,"COc1ccc(C2=NN(C(=O)N[C@H](C)c3cnc(C(F)(F)F)nc3)C[C@@H]2N2CCOCC2=O)cc1 [Compound 36, (S)-4-(3-oxomorpholin-4-yl)-3-(4-methoxyphenyl)-N-((R)-1-(2-(trifluoromethyl)pyrimidin-5-yl)ethyl)-4,5-dihydro-1H-pyrazol-1-carboxamide]",283 nM
5,Cc1ccc(C2=NN(C(=O)N[C@H](C)c3ccc(OC(F)(F)F)nc3)C[C@@H]2N2CCCC2=O)cc1 [Compound 13],257 nM
6,Cc1ccc(C2=NN(C(=O)N[C@H](C)c3cnc(C(F)(F)F)nc3)C[C@@H]2N2CCN(C)CC2)cc1 [Compound 38],2670 nM
7,"C[C@@H](NC(=O)N1C[C@@H](N2CCCC2=O)C(c2ccc(F)cc2)=N1)c1cnc(Cl)nc1 [Compound 44a, (R)-4-(2-oxopyrrolidin-1-yl)-3-(4-fluorophenyl)-N-((R)-1-(2-chloropyrimidin-5-yl)ethyl)-4,5-dihydro-1H-pyrazol-1-carboxamide]",421 nM
8,"CC(=O)N1CCN([C@H]2CN(C(=O)N[C@H](C)c3cnc(C(F)(F)F)nc3)N=C2c2ccc(C)cc2)CC1 [Compound 37, (S)-4-(4-acetylpiperazin-1-yl)-3-(4-methylphenyl)-N-((R)-1-(2-(trifluoromethyl)pyrimidin-5-yl)ethyl)-4,5-dihydro-1H-pyrazol-1-carboxamide]",3730 nM
9,"COc1ccc([C@@H](C)NC(=O)N2C[C@H](N3CCOCC3)C(c3ccc(F)cc3)=N2)cn1 [Compound 14, (S)-4-(morpholin-4-yl)-3-(4-fluorophenyl)-N-((R)-1-(6-methoxypyridin-3-yl)ethyl)-4,5-dihydro-1H-pyrazol-1-carboxamide]",736 nM
10,"Cc1ccc(C2=NN(C(=O)N[C@H](C)c3cnc(C(F)(F)F)nc3)C[C@H]2N2CCOCC2=O)cc1 [Compound 3a, (R)-4-(3-oxomorpholin-4-yl)-3-(4-methylphenyl)-N-((R)-1-(2-(trifluoromethyl)pyrimidin-5-yl)ethyl)-4,5-dihydro-1H-pyrazol-1-carboxamide]",318 nM
11,COc1ccc([C@@H](C)NC(=O)N2C[C@H](N3CCOC3=O)C(c3ccc(C)cc3)=N2)cc1OC [Compound 6],1230 nM
12,"C[C@@H](NC(=O)N1C[C@H](N2CCCC2=O)C(c2ccc(F)cc2)=N1)c1cnc(Cl)nc1 [Compound 44, (S)-4-(2-oxopyrrolidin-1-yl)-3-(4-fluorophenyl)-N-((R)-1-(2-chloropyrimidin-5-yl)ethyl)-4,5-dihydro-1 H-pyrazol-1-carboxamide]",233 nM
13,"C[C@@H](NC(=O)N1C[C@@H](N2CCOCC2=O)C(c2ccc(Cl)cc2)=N1)c1cnc(C(F)(F)F)nc1 [Compound 35a, (R)-4-(3-oxomorpholin-4-yl)-3-(4-chlorophenyl)-N-((R)-1-(2-(trifluoromethyl)pyrimidin-5-yl)ethyl)-4,5-dihydro-1H-pyrazol-1-carboxamide]",451 nM
14,"Cc1ccc(C2=NN(C(=O)N[C@H](C)c3ccc4c(c3)OCO4)C[C@@H]2N2CCCC2=O)cc1 [Compound 7, (S)-4-(2-oxopyrrolidin-1-yl)-3-(4-methylphenyl)-N-((R)-1-(3,4-(methylenedioxy)phenyl)ethyl)-4,5-dihydro-1H-pyrazol-1-carboxamide]",985 nM
15,Cc1ccc(C2=NN(C(=O)N[C@H](C)c3cnc(C(F)(F)F)nc3)C[C@@H]2n2cccn2)cc1 [Compound 42],4910 nM
16,C[C@@H](NC(=O)N1C[C@@H](N2CCOCC2=O)C(c2ccc(F)cc2)=N1)c1ccc(C(F)(F)F)nc1 [Compound 24a],145 nM
17,CC(=O)N1CCN([C@H]2CN(C(=O)N[C@H](C)c3ccc(C(F)(F)F)nc3)N=C2c2ccc(C)cc2)CC1 [Compound 19],3860 nM

# Biological target: T2, human PAR-1 (Homo sapiens, UniProt P25116)
# T2 construct: host or cells: HEK293/Ga15 recombinant cell line
# T2 sequence (P25116 22-425): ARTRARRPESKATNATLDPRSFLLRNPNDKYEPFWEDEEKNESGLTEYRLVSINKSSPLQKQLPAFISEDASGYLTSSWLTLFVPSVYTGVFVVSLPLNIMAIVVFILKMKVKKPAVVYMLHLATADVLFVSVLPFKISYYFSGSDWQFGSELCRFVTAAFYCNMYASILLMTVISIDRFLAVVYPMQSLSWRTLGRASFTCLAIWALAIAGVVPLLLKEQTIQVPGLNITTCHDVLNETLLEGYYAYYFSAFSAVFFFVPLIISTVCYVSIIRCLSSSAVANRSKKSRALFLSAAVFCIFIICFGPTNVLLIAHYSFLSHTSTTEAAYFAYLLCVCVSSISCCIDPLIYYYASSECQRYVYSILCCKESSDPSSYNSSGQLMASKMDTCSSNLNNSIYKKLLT
# Assay: Inhibitory activity against PAR-1, calcium ion flux fluorescence method (FLIPR)
# Type: cell-based
# Settings: HEK293/Ga15 cells expressing human PAR-1, TFLLR-NH2 10 μM, starting concentration 30 μM
# Protocol: The inhibitory activity of the title compounds against human PAR-1 was determined by a calcium ion flux fluorescence method (an FLIPR method). The method thereof was reported in the literature of Zhong et al. [Zhong et al. J Biomol Struct Dyn, 2017, 35(13):2853].
# An HEK293/Ga15 recombinant cell line (HD Biosciences, Shanghai, China) stably expressing human PAR-1 was cultured in a DMEM (Thermo Fisher Scientific, Shanghai) culture solution (containing 10% calf serum, 800 μg/mL G418). Incubator conditions were 37° C. and an air humidity with 5% CO2.
# On the first day, 20 μL per well of PAR-1 cells at a concentration of 4E+5 cells/mL were seeded in a 384-well analysis plate (Corning 3712). […] On the second day, a culture solution in each well was poured off. Then, 20 μL of 1×loading dye (2 μM Fluo-8 AM in 1×HBSS with 20 mM HEPES, 1 mM Probenecid, 0.025% Pluronic F-127 assay buffer) was added in each well. The cell analysis plate was cultured for 1 hour at a room temperature.
# The compounds were dissolved into 100% DMSO to prepare a 10 mM stock solution, which was stored at −20° C. On the day of use, the compound stock solution was thawed at a room temperature. Each compound was subjected to 1:3 serial dilution at 11 concentration points with a DMEM culture solution with a starting concentration of 30 μM. Each compound was subjected to double dilution for testing. A positive control compound was diluted in the same way with SCH79797 with a starting concentration of 30 μM.
# The cell analysis plate was placed in a FLIPR instrument (Molecular Device) and 10 μL of compounds (3× of a final concentration) in a compound plate was added to corresponding wells of the cell analysis plate. After 10 minutes, 10 μL of TFLLR-NH2 (TFA) (a final concentration of 10 μM) was added to each well to stimulate generation of intracellular calcium flux signals. Ca^++-dependent fluorescence signals were continuously monitored at excitation wavelengths of 470/495 nm and emission wavelengths of 515/575 nm to analyze the inhibitory activity of the compounds.
# Data were collected and analyzed by using an FLIPR program. The inhibitory (or agonistic) activity of the compounds at each concentration was assessed by fluorescence peaks. IC50 values of the compounds were calculated by using EXCEL and PRISM programs.
row,Compound,IC50
1,Cc1ccc(C2=NN(C(=O)N[C@H](C)c3ccc(Cl)nn3)C[C@@H]2N2CCOC2=O)cc1 [Compound 31],> 30000 nM
2,Cc1ccc(C2=NN(C(=O)N[C@H](C)c3cnc(C(F)(F)F)nc3)C[C@@H]2N2CCN(C)C2=O)cc1 [Compound 41],> 30000 nM
3,"Cc1ccc(C2=NN(C(=O)N[C@H](C)c3ccc(C(F)(F)F)nn3)C[C@@H]2N2CCOCC2=O)cc1 [Compound 30, (S)-4-(3-oxomorpholin-4-yl)-3-(4-methylphenyl)-N-((R)-1-(6-(trifluoromethyl)pyridazin-3-yl)ethyl)-4,5-dihydro-1H-pyrazol-1-carboxamide]",> 30000 nM
4,"Cc1ccc(C2=NN(C(=O)N[C@H](C)c3ccc(C(F)(F)F)nc3)C[C@@H]2N2CCOCC2=O)cc1 [Compound 1, (S)-4-(3-oxomorpholin-4-yl)-3-(4-methylphenyl)-N-((R)-1-(6-(trifluoromethyl)pyridin-3-yl)ethyl)-4,5-dihydro-1H-pyrazol-1-carboxamide]",> 30000 nM
5,Cc1ccc(C2=NN(C(=O)N[C@H](C)c3ccc(C(F)(F)F)cc3)C[C@@H]2N2CCOCC2=O)cc1 [Compound 20],> 30000 nM
6,Cc1ccc(C2=NN(C(=O)N[C@H](C)c3nc(C)no3)C[C@@H]2N2CCCC2=O)cc1 [Compound 45],> 30000 nM
7,"Cc1ccc(C2=NN(C(=O)N[C@H](C)c3cnc(C(F)(F)F)nc3)C[C@@H]2N2CCOC2=O)cc1 [Compound 40, (S)-4-(2-oxooxazolidin-3-yl)-3-(4-methylphenyl)-N-((R)-1-(2-(trifluoromethyl)pyrimidin-5-yl)ethyl)-4,5-dihydro-1H-pyrazol-1-carboxamide]",> 30000 nM
